According to article PMC8773409, “Tetrapeptides Modelled to the Androgen Binding Site of ZIP9 Stimulate Expression of Tight Junction Proteins and Tight Junction Formation in Sertoli Cells” (Biology, 2021):

Assays:
[1] = test system: ZIP9; experiment: ZIP9 protein immunofluorescence after siRNA silencing; assay type: cell-based, rat; details: ZIP9-siRNA-treated 93RS2 cells; n = 30, means ± SEM
Method: (§1) For visualization by immunofluorescence, the medium containing the primary antibody was replaced with PBS containing 1% BSA, 0.3% Triton X-100, and the secondary antibody (goat anti-rabbit IgG diluted at 1:500 in 2% FCS, 0.1 Triton X-100 in PBS) labeled with AlexaFluor 488 (Life Technologies, Darmstadt, Germany). This medium was removed by aspiration after 1 h at room temperature and cells were washed in PBS 3 times. All incubation steps with UV-sensitive reagents were carried out in the dark. An inverse Olympus IX81 microscope equipped with the corresponding fluorescence system (Olympus, Hamburg, Germany) was used to acquire images.
(§2) Fluorescence was measured according to the instructions of the ImageJ software program (freely available at http://rsbweb.nih.gov/ij/, accessed on 23 December 2021) according to the protocol provided (http://www.slu.se/PageFiles/388774/Pacho%20ImageJ¬¬%20-measuring-cell-fluo¬rescence.pdf, accessed on 23 December 2021). Only green fluorescence was considered. The fluorescence of 3 × 25 cells closest to the diagonals of photomicrographs from 3 independent experiments was considered for statistical analysis. […]
A total of 6 × 10^4 93RS2 cells were cultured in 2-cm wells of a 6-well plate for 24 h. […] The concentration of the extracted mRNA was quantified by the NanodropTM One spectrophotometer (Thermo Fisher Scientific, Schwerte, Germany). […]

[2] = test system: ZIP9 mRNA; experiment: RT-PCR of ZIP9 mRNA after siRNA silencing; assay type: cell-based, rat; details: ZIP9-siRNA-treated 93RS2 cells
Method: A total of 6 × 10^4 93RS2 cells were cultured in 2-cm wells of a 6-well plate for 24 h. Thereafter, cells were treated for 48 h either with ZIP9-specific siRNA (ZIP9-siRNA; 5′GGAUUAAGUAAGAGCAGUAtt3′ and 5′UACUGCUCUUACUUAAUCCta3′) to silence ZIP9 expression or with an appropriate negative control siRNA (nc-siRNA), as described previously. ZIP9-siRNA and nc-siRNA were part of the kit Silencer® Select Pre-designed siRNA, provided by Invitrogen (Thermo Fisher Scientific, Schwerte, Germany). After the siRNA treatment, RNeasy® Mini Kit (Qiagen GmbH, Hilden, Germany) was used to isolate mRNA. The concentration of the extracted mRNA was quantified by the NanodropTM One spectrophotometer (Thermo Fisher Scientific, Schwerte, Germany). Samples were measured in duplicate and the average values were used.
RT-PCR was applied in order to assess the success of silencing ZIP9 expression by siRNA. mRNA that had been isolated from cells treated with either nc-siRNA or ZIP9-specific siRNA was processed to cDNA using the Reverse Transcription System (Promega GmbH, Mannheim, Germany) according to the protocol of the provider. A total of 1 µg cDNA, quantified by the NanodropTM One spectrophotometer, was used in the PCR-Master-Mix ready-to-load (Bio&SELL GmbH, Feucht, Germany) to detect ZIP9-specific cDNA. […]

[3] = test system: total Erk1/2 in 93RS2 cells; experiment: Expression of total Erk1/2 in 93RS2 lysates; assay type: cell-based, rat; details: lysates of treated 93RS2 cells; data not shown
Method: (§3) A total of 1 × 10^5 93RS2 cells were grown in 10-cm culture dishes as described above. Cells were then incubated for 24 h with 1% FBS before treatment with various concentrations of the peptides dissolved in medium or testosterone dissolved in ethanol; equal amounts of ethanol were also added to the peptide-treated cells and to control incubations. After 30 min of incubation the medium was removed by aspiration, and cells were washed twice with ice-cold PBS (without Ca^2+ or Mg^2+; Thermo Fisher Scientific, Darmstadt, Germany) and then lysed in 400 µL of a commercially available cell lysis buffer (Cell Signaling Technology, Frankfurt, Germany) according to the protocol of the provider. […] After centrifugation of the lysates at 4 °C for 10 min at 13,000× g, the protein concentration in the supernatants was determined using a bicinchoninic acid (BCA) protein assay reagent kit (Pierce, Rockford, IL, USA) with inclusion of the lysis buffer in the standard curve.
(§4) For Western blotting, 10 µg of protein from cell lysates was separated by SDS-PAGE on slab gels containing 10% acrylamide and 0.3% N,N′-methylene-bis-acrylamide. […] The resulting chemiluminescence was recorded by exposure to film, which was analyzed with the software program ImageJ (freely available at http://rsbweb.nih.gov/ij/ (accessed on 31 December 2021)). […]

[4] = test system: Erk1/2 phosphorylation in 93RS2 cells; experiment: Immunofluorescence of phospho-Erk1/2 in 93RS2 cells; assay type: cell-based, rat; details: 10 nM testosterone or 10 µM peptide, 30 min, n = 3 × 25
Method: (§5) The medium was replaced every two days.
(§6) Each chamber of 4-chamber slides was plated with 1 × 10^4 93RS2 cells and cultured as described above to approximately 80% confluence. Incubation was then carried out with either 10 nM testosterone or 10 µM of each of the peptides or with vehicle only (control). The medium was removed by aspiration after 30 min, and cells were fixed for 15 min in absolute methanol containing DAPI (4′,6-diamidino-2-phenylindole). After aspirating the fixative, cells were treated with blocking solution (3% BSA and 0.3% Triton X-100 in PBS) for 1 h. […]
as §1, with “This medium was removed by aspiration after 1 h at room temperature and cells were washed in PBS 3 times. All incubation steps with UV-sensitive reagents were carried out in the dark.” left out
as §2, with “considered.” for “considered. The fluorescence of 3 × 25 cells closest to the diagonals of photomicrographs from 3 independent experiments was considered for statistical analysis.”

[5] = test system: claudin-1 and claudin-5 expression in rodent Sertoli cells; set-up: method as in PMID 27164415, PMID 12851029, PMID 20403878, doi:10.1093/biolreprod/83.s1.109; details: ref [6],[29],[34],[35]; cited from earlier work
[6] = test system: claudin-1 in 93RS2 cells; experiment: Immunofluorescence of claudin-1 in 93RS2 cells; assay type: cell-based, rat; details: 10 nM testosterone or 10 µM peptide, 24 h
[7] = test system: CREB/ATF-1 phosphorylation in 93RS2 cells; experiment: Immunofluorescence of phospho-CREB/phospho-ATF-1 in 93RS2 cells; assay type: cell-based, rat; details: 10 nM testosterone or 10 µM peptide, 30 min
Method: as §5, §6
as §1, with “This medium was removed by aspiration after 1 h at room temperature and cells were washed in PBS 3 times. All incubation steps with UV-sensitive reagents were carried out in the dark.” left out
as §2, with “considered.” for “considered. The fluorescence of 3 × 25 cells closest to the diagonals of photomicrographs from 3 independent experiments was considered for statistical analysis.”

[8] = test system: Erk1/2 phosphorylation (via ZIP9) in 93RS2 cells; experiment: Western blot of phospho-Erk1/2 in 93RS2 Sertoli cells; assay type: cell-based, rat
Method: as §5
A total of 1 × 10^5 93RS2 cells were grown in 10-cm culture dishes as described above. Cells were then incubated for 24 h with 1% FBS before treatment with various concentrations of the peptides dissolved in medium or testosterone dissolved in ethanol; equal amounts of ethanol were also added to the peptide-treated cells and to control incubations. […] After centrifugation of the lysates at 4 °C for 10 min at 13,000× g, the protein concentration in the supernatants was determined using a bicinchoninic acid (BCA) protein assay reagent kit (Pierce, Rockford, IL, USA) with inclusion of the lysis buffer in the standard curve.
as §4, with “2021)). Loading differences in the various Western blots were corrected by taking into consideration the optical density of bands corresponding to unphosphorylated Erk1/2 bands or total actin detected in Western blots that were run in parallel.” for “2021)).”

[9] = test system: ZO-1 expression in 93RS2 cells; experiment: Immunofluorescence of ZO-1 in 93RS2 cells; assay type: cell-based, rat; details: 10 nM testosterone or 10 µM peptide, 24 h
[10] = test system: CREB/ATF-1 phosphorylation (via ZIP9) in 93RS2 cells; experiment: Western blot of phospho-CREB/phospho-ATF-1 in 93RS2 Sertoli cells; assay type: cell-based, rat
Method: as §5
as §3, with “provider. Immediately before use, […], 1× protease inhibitor cocktail (Roche, Mannheim, Germany), and 2 µg/mL pepstatin were added to the lysis buffer. All lysis steps were carried out on ice.” for “provider.”
as §4, with “2021)). Loading differences in the various Western blots were corrected by taking into consideration the optical density of bands corresponding to unphosphorylated Erk1/2 bands or total actin detected in Western blots that were run in parallel.” for “2021)).”
Data were analyzed by GraphPad Prism4 software and by applying either the unpaired t-test with Welch’s corrections or one-way ANOVA with repeated measures and Dunnett´s comparison of all data to the control. […]

[11] = test system: claudin-5 in 93RS2 cells; experiment: Immunofluorescence of claudin-5 in 93RS2 cells; assay type: cell-based, rat; details: 10 nM testosterone or 10 µM peptide, 24 h
[12] = test system: 93RS2 Sertoli cells (tight junction formation); experiment: Transepithelial electrical resistance (TER) across 93RS2 monolayers; assay type: cell-based, rat; details: ZIP9-siRNA; 10 nM testosterone or 10 µM peptides; up to 72 h
Method: as §5
A total of 3 × 10^4 cells were added to 0.4-µm pore ThinCertsTM (Greiner Bio-one GmbH, Frickenhausen, Germany) arranged within 1-cm wells of a 24-well plate. Cells were cultured for 24 h. Stimulation was then carried out with either testosterone or peptides at concentrations of 0.1, 1, 10, or 100 nM (testosterone) or 0.1, 1, 10, or 100 µM (peptides). Control incubations received ethanol vehicle only. TER was determined after 0, 24, 48, and 72 h, with the first measurement being made immediately after addition of testosterone or peptides. Stimulants remained in the cell medium for the entire duration of the experiment, and during this time the medium was not renewed. A Millicell ERS-2 epithelial Volt-Ohm Meter (Merck Millipore, Darmstadt, Germany) was used to measure TER. Each experiment was repeated three times. Similar experiments were carried out after silencing expression of ZIP9 by siRNA.
Data were analyzed by GraphPad Prism4 software and by applying either the unpaired t-test with Welch’s corrections or one-way ANOVA with repeated measures and Dunnett´s comparison of all data to the control. Significance was accepted at p ≤ 0.05.

[13] = test system: androgen binding site of ZIP9 on 93RS2 cells; experiment: Cell-surface labeling with testosterone-BSA-FITC (displacement); details: 20 min; for labeling of 93RS2 cells by fluorescent conjugate: 5 µM, room temperature, no competitor, ZIP9 expressed
Method: Cells were cultured in a humidified incubator (37 °C, 5% CO2) in 1:1 DMEM:Ham’s F-12 medium with L-glutamine supplemented with 10% (v/v) fetal bovine serum (FBS) and 1% (v/v) penicillin/streptomycin. The medium was replaced every two days.
A total of 93 RS2 cells were cultured at a density of 5 × 10^3 cells per well in 24-well plates as described above. After reaching about 80% confluence, the cells were treated with either 10 nM testosterone or 1 µM of each of the peptides for 1 h. Both peptide-treated cells and controls were also treated with ethanol vehicle at the same concentration as other plates of cells treated with testosterone dissolved in ethanol. […] After incubation for an additional 20 min at room temperature, the medium was aspirated and cells were fixed in 400 µL ice-cold methanol containing 20 ng of 4,6-diamino-2-phenylindole (DAPI) at room temperature. This solution was aspirated after 15 min and cells were washed with 700 μL PBS. Cell imaging was carried out in 400 µL PBS using an inverse Olympus IX81 microscope (Olympus, Hamburg, Germany).
In order to account for non-specific binding, cells were incubated for 20 min with 5 µM BSA-FITC (lacking the testosterone moiety) diluted in Tris-Buffer (pH 7.2) at room temperature. After washing twice with PBS and fixing in absolute methanol containing DAPI for 15 min, images were obtained as described above.

[14] = 30 min, T 0.1-100 nM, peptides 0.1-100 µM, Western blot

5′GGAUUAAGUAAGAGCAGUAtt3′ and 5′UACUGCUCUUACUUAAUCCta3′ (chain 1 GGAUUAAGUAAGAGCAGUATT; chain 2 UACUGCUCUUACUUAAUCCTA; siRNA; chemistry not fully specified) [ZIP9-siRNA, ZIP9-specific siRNA to silence ZIP9 expression]
ZIP9-specific immunofluorescence remaining vs control conditions [1]: 7.93 ± 1.1%
presence of ZIP9-specific mRNA/cDNA vs nc-siRNA [2]: greatly reduced

C[C@]12CC[C@H]3[C@@H](CCC4=CC(=O)CC[C@@]43C)[C@@H]1CC[C@@H]2O [testosterone]
effect on expression of total Erk1/2 [3]: without affecting the expression of the enzyme protein
phosphorylation of Erk1/2 by immunofluorescence, ZIP9 silenced ([4]; ZIP9-siRNA-treated cells): abolished the stimulation of Erk1/2 phosphorylation
phosphorylation of Erk1/2 by immunofluorescence, ZIP9 expressed ([4]; nc-siRNA-treated cells): triggered the phosphorylation of Erk1/2
claudin-1 and claudin-5 expression [5]: stimulate claudin-1 and claudin-5 expression
claudin-1 distribution, ZIP9 silenced ([6]; ZIP9-siRNA): This re-distribution was not observed
claudin-1 distribution, ZIP9 expressed ([6]; nc-siRNA): triggered re-distribution of claudin-1 from the cytosol to the membranes or to the nuclei
claudin-1 expression level ([6]; nc-siRNA): do not seem to influence the expression level of claudin-1
phosphorylation of CREB/ATF-1 by immunofluorescence, ZIP9 silenced ([7]; ZIP9-siRNA-treated cells): complete loss of the stimulatory effect
phosphorylation of CREB/ATF-1 within nuclei by immunofluorescence, ZIP9 expressed ([7]; nc-siRNA-treated cells): stimulated phosphorylation of the transcription factors within the nuclei
stimulation of Erk1/2 phosphorylation, in words [8, 14]: stimulated in a concentration-dependent manner the phosphorylation of Erk1/2
EC50 ([8]; Rattus norvegicus, 0.5 h, read-out: EC50 for stimulation of Erk1/2 phosphorylation (approximate, Discussion)): ~0.5 nM
ZO-1 expression, ZIP9 silenced ([9]; ZIP9-siRNA): did not respond
ZO-1 expression, ZIP9 expressed ([9]; nc-siRNA): stimulated the expression of zona occludens (ZO-1)
stimulation of CREB/ATF-1 phosphorylation, in words [10, 14]: stimulate the phosphorylation of the transcription factors CREB and ATF-1
EC50 ([10]; Rattus norvegicus, 0.5 h, read-out: EC50 for CREB and ATF-1 phosphorylation (approximate, Discussion)): ~0.5 nM
concentration of maximum effect on CREB/ATF-1 phosphorylation ([10]; testosterone (Discussion)): 10 nM
claudin-5 expression and localization, ZIP9 silenced ([11]; ZIP9-siRNA): Only basal levels of Claudin-5 are detected
claudin-5 expression, ZIP9 expressed ([11]; nc-siRNA): stimulated the expression of claudin-5
TER increase, ZIP9 silenced [12]: failed to stimulate TER increase

BSA-FITC: BSA-FITC (lacking the testosterone moiety)
labeling of 93RS2 cells by fluorescent conjugate [13]: Relatively low signals of green fluorescence

Testosterone 3-(O-carboxymethyl)oxime:BSA-fluorescein isothiocyanate [T-BSA-FITC]
labeling of 93RS2 cells by fluorescent conjugate [13]: uniform green labeling of the extracellular surface of the cells
labeling of cell membranes by testosterone-BSA-FITC, ZIP9 silenced ([13]; ZIP9-siRNA-treated cells, 5 µM T-BSA-FITC): completely prevented
